In paper PMC9229843, “Cancer-Related Somatic Mutations in Transmembrane Helices Alter Adenosine A1 Receptor Pharmacology” (Molecules, 2022):
Substitutions are numbered along the chain they refer to.

What was measured:
Experiment in all cases: yeast liquid growth assay
Format in all cases: cell-based
hA1AR A20T^1.43 = target: T1, hA1AR A20T^1.43 (Homo sapiens, UniProt P30542, A20T); conditions: ratio over basal activity of wild type hA1AR, 7 mM 3-AT
T1 construct: expressed in transfected cells; host or cells: S. cerevisiae MMY24
T1 sequence (P30542 1-326 A20T): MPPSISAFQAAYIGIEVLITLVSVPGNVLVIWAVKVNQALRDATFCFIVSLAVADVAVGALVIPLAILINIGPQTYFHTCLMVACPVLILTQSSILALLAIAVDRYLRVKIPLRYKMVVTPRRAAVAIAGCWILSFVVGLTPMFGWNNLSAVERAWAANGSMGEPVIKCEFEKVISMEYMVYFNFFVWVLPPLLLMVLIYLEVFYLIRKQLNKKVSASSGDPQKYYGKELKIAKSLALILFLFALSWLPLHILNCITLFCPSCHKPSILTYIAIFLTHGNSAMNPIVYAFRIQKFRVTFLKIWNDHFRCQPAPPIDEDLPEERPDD
Description: (§1) The plasmids, pDT-PGK_hA1AR, containing either wild type or mutated hA1AR were transformed into a MMY24 S. cerevisiae strain following the lithium acetate procedure.
(§2) In order to characterize the mutant hA1ARs, liquid growth assays in 96-well plates were performed to obtain concentration–growth curves as previously described. […] The overnight cultures were then diluted to 40,000 cells/mL (OD600 ≈ 0.02) in a selective medium without uracil, leucine, and histidine (YNB-ULH). For the determination of constitutive activity, 50 μL of yeast cells and 150 μL of YNB-ULH medium containing different concentrations of 3-AT and 0.8 IU/mL ADA were then added to each well. To obtain concentration–growth curves, 2 μL of various concentrations of ligands, 50 μL of yeast cells, and 150 μL of YNB-ULH medium containing 7 mM 3-AT and 0.8 IU/mL ADA were then added to each well. After incubation at 30 °C for 35 h in a Genios plate reader (TECAN, Zürich, Switzerland) with shaking for 1 min at 300 rpm every 10 min, the optical density was measured at a wavelength of 595 nm, which represented the level of yeast cell growth.
(§3) All experimental data were analyzed by GraphPad Prism 7.0 or 8.0 (GraphPad Software Inc., San Diego, CA, USA). Data from yeast liquid growth and [^35S]GTPγS binding assays were analyzed by non-linear regression using “log (agonist) vs. response (three parameters)” or “log (inhibitor) vs. response (three parameters)” to obtain potency (EC50), inhibitory potency (IC50), and efficacy (Emax or Imax) values. The radioligand displacement curves were obtained from a statistically preferred one-site or two-site binding model. pKi values were calculated from pIC50 values using the Cheng–Prusoff equation, where KD values were obtained from the homologous competition assays from this study and calculated by non-linear regression using “one site–homologous” [62].

hA1AR A52V^2.47 = target: T2, hA1AR A52V^2.47 (Homo sapiens, UniProt P30542, A52V)
T2 construct: expressed in transfected cells; host or cells: S. cerevisiae MMY24
T2 sequence (P30542 1-326 A52V): T1 sequence (P30542 1-326 A20T) with T20A, A52V
Description: as §1, §2, §3

hA1AR D55G^2.50 = target: T3, hA1AR D55G^2.50 (Homo sapiens, UniProt P30542, D55G); conditions: result in words
T3 construct: expressed in transfected cells; host or cells: S. cerevisiae MMY24
T3 sequence (P30542 1-326 D55G): T1 sequence (P30542 1-326 A20T) with T20A, D55G
Description: as §1, §2, §3

hA1AR G279S^7.44 = target: T4, hA1AR G279S^7.44 (Homo sapiens, UniProt P30542, G279S); conditions: ratio over basal activity of wild type hA1AR, 7 mM 3-AT
T4 sequence (P30542 1-326 G279S): T1 sequence (P30542 1-326 A20T) with T20A, G279S
Description: as §1, §2, §3

hA1AR W188C^5.46 = target: T5, hA1AR W188C^5.46 (Homo sapiens, UniProt P30542, W188C)
T5 sequence (P30542 1-326 W188C): T1 sequence (P30542 1-326 A20T) with T20A, W188C
Description: as §1, §2, §3

## OC[C@H]1O[C@@H](n2cnc3c(NC4CCCC4)ncnc32)[C@H](O)[C@@H]1O [CPA, N^6-cyclopentyladenosine]
hA1AR A20T^1.43
  Emax: 4.23 ± 0.60
hA1AR A52V^2.47
  decrease in potency versus wild type hA1AR: more than 400 fold
hA1AR D55G^2.50
  agonist-induced receptor activation: could not be activated
hA1AR G279S^7.44
  Emax: 4.96 ± 0.38
hA1AR W188C^5.46
  decrease in potency versus wild type hA1AR: 10 fold
hA1AR W188C^5.46; ratio over basal activity of wild type hA1AR, 7 mM 3-AT
  Emax: 4.35 ± 0.10
